Experimental data reported in patent US20220290196A1, “GENETICALLY ENGINEERED MICROBES AND BIOSYNTHETIC METHODS” (The Regents of the University of California, priority 2019, published 2022).
Where “and” joins values, the source holds several entries; their conditions need not be identical. Equal values may be shown once. Read-outs that look alike come from different tables or passages of the source.

Tests used:
Tar13 Tar14 Tar16 = test: One-pot Tar13/Tar14/Tar16 conversion of L-Trp to L-4-Cl-Kyn; assay type: biochemical, Saccharomonospora sp. CNQ-490
Description: Buffer: up to 100 μL (50 mM Tris, 500 mM NaCl (or KBr) 10% glycerol, pH 8.0)
(§1) Tar14 (added last): 2.5 μM
Incubate 45 min at 30° C., followed by addition of premixed:
Buffer: up to 50 μL (50 mM Tris, 500 mM NaCl (or KBr) 10% glycerol, pH 8.0)
The reactions were incubated at 30° C. overnight, after which the assays were quenched by addition of equal volume of HPLC grade methanol and frozen at −70° C. till further analysis by LCMS.

Tar14 = Tar14 in vitro halogenation assay with substrate analogues; assay type: biochemical, Saccharomonospora sp. CNQ-490
Description: Tar14. Tar14 reaction mixture of total volume 100 μL in 1.5 mL Eppendorf tube was composed of the following components:
Buffer (10 mM Tris, 10% glycerol, pH 7.6): up to 100 μL

[1] = system: S. coelicolor M1146-tarM1Δtar14; test: Feeding/chemical complementation experiment, incorporation into taromycin; assay type: cell-based, Streptomyces coelicolor; conditions: incorporation at residue-1 and residue-13; analogue fed at 2 mM; judged by comparison to taromycin yields by S. coelicolor M1146-tarM1
Description: For taromycin production, seed culture in TSBY medium was inoculated with corresponding S. coelicolor spore suspension (collected from fresh SFM plates) and was cultured for 36-48 h till a dense creamy consistency was reached. Kanamycin at 10 μg mL^−1 final concentration was added to the seed cultures of S. coelicolor M1146-pCAP01-tarM1 and S. coelicolor M1146-pCAP01-tarM1Δtar14. Inocula of seed culture (5%, v/v) were used for fermentation in MP medium (1% glucose, 1% soluble starch, 0.4% peptone, 0.3% yeast extract, 0.3% soytone, 0.2% meat extract, 0.2% CaCO3, and 0.5% NaCl, pH 7.2). Fermentation was carried out at 30° C. and 220 rpm in a rotary incubator for 6 days. A maximum of 40 mL of production medium was added into 250 mL flask with metal springs.
S. coelicolor M1146-pCAP01-tarM1Δtar14 cultures were grown as described in Section 3 for taromycin production. After 18 and 36 h of cultivation, tryptophan analogues in the form of water suspension were added to the production cultures to a final concentration 2 mM. The cultures were further incubated for 5 days before extraction and further analysis by LC-HRMS^n. All experiments were repeated independently twice with three replicates for each compound. In parallel, cultures of S. coelicolor M1146-pCAP01-tarM1 and S. coelicolor M1146-pCAP01-tarM1Δtar14 were grown as controls.
To analyze production of taromycins and analogues, solid phase extraction of the culture supernatants was performed with Amberlite XAD-16 resin (SIGMA). For analytical purposes around 1 g of washed and equilibrated resin was added to 20 mL of supernatant followed by shaking for 30-60 min. Samples were then spun down and decanted. The resin was washed twice with water (15 mL), before elution with methanol (5 mL). The methanol extracts from the resin were used for LCMS analysis without additional concentration step.

Tar13 = Tar13 in vitro assay with substrate analogues; assay type: biochemical, Saccharomonospora sp. CNQ-490
Description: Tar13. Upon testing different reaction compositions (buffers, concentration of ascorbic acids and hemin, pH), the following conditions were found as optimal:
Buffer: up to 50 μL (50 mM Tris, 500 mM NaCl 10% glycerol, pH 8.0)
(§2) In a separate Eppendorf tube premix:
Add substrate solution to the enzyme mixture to start reaction
When Tar13 was directly added to the enzyme reaction, immediate protein precipitation occurred. The same was observed if the enzyme was not pre-mixed with hemin and ascorbic acid. Full substrate conversion was achieved after overnight incubation at 30° C. in 1.5 mL Eppendorf tube with shaking. The reactions were quenched by addition of equal volume of HPLC grade methanol.

Tar16 = test: Coupled Tar13/Tar16 assay (Tar16 substrate generated in situ by Tar13); assay type: biochemical, Saccharomonospora sp. CNQ-490; conditions: substrates generated in situ by Tar13; Tar16 10 μM; overnight at 30° C.
Description: Coupled Tar13 Tar]6. The reaction mixture of total volume 100 μL in 1.5 mL Eppendorf tube was composed of the following components:
Buffer: up to 50 μL (50 mM Tris, 500 mM NaCl 10% glycerol, pH 8.0
Substrate (for Tar13 enzyme): 0.25 μM
as §2
Buffer: up to […] (50 mM Tris, 500 mM NaCl 10% glycerol, pH 8.0)
Add substrate solution to the enzyme mixture to start reaction.
No difference in conversion was observed when Tar16 was added into the assay mixture either together with Tar13, or after 2 h of incubation at 30° C., or after overnight incubation at 30° C., followed by another 4 h of incubation after addition of Tar16. Therefore, for convenience, all components were mixed at the same time point, the reactions were incubated at 30° C. overnight, after which the assays were quenched by addition of equal volume of HPLC grade methanol.

[2] = Deformylation of N-formyl-L-4-Cl-Kyn on purification/lyophilization; assay type: physicochemical; conditions: mildly acidic purification conditions / after lyophilization
Description: N-formyl-L-4-Cl-kynurenine (10): The Tar13 biochemical assay was scaled to 57.6 mL (six 96 well plates with 100 μL reaction mixture as described in section 8 in each well). After overnight incubation, the assays were pooled together, frozen on dry ice, and lyophilized. The dried sample was redissolved in a 4000 μL of water/methanol (1/1) mixture and subjected to purification by preparative HPLC using method 8. Organic solvent from combined fractions (checked by direct injection into the Bruker Ion Trap mass spectrometer) was removed by evaporation at reduced pressure and the aqueous sample was frozen following by lyophilization. Due to the presence of closely eluting impurities, further purification step using semi-preparative HPLC and method 6 was used. The target peak was collected manually. After removing organic solvent under reduced pressure and lyophilization, the desired product 10 (1.8 mg) was obtained.

[3] = system: Lechevalieria aerocolonigenes ATCC 39243 RebH (tryptophan halogenase), SEQ ID NO: 44; conditions: cited from earlier work
[4] = system: Pseudomonas fluorescens PrnA (tryptophan halogenase), SEQ ID NO: 43; conditions: cited from earlier work
[5] = system: Kutzneria sp. 744 KtzR (tryptophan halogenase), SEQ ID NO: 40; conditions: cited from earlier work
[6] = system: Streptomyces violaceusniger SPC6 Th-Hal (C6 tryptophan halogenase), SEQ ID NO: 38; conditions: cited from earlier work
[7] = system: Streptomyces toxytricini NRRL 15443 SttH (tryptophan halogenase), SEQ ID NO: 39; conditions: cited from earlier work
[8] = system: Streptomyces rugosporus LL-42D005 PyrH (C5 tryptophan halogenase), SEQ ID NO: 36; conditions: cited from earlier work
[9] = biological target: T1, Saccharomonospora sp. CNQ-490 Tar14 (flavin-dependent tryptophan halogenase), wild type, SEQ ID NO: 3 (expressed SEQ ID NO: 4); expressed with cleaved His tag SE (Saccharomonospora piscinae, UniProt W5VG40); test: Kinetic characterization of Tar14-catalyzed chlorination of L-tryptophan; assay type: biochemical; conditions: Tar14, L-Trp chlorination, 30° C., pH 7.6
T1 construct: flavin reductase Tar15 and PtdH as helper enzymes
T1 sequence (W5VG40 1-534): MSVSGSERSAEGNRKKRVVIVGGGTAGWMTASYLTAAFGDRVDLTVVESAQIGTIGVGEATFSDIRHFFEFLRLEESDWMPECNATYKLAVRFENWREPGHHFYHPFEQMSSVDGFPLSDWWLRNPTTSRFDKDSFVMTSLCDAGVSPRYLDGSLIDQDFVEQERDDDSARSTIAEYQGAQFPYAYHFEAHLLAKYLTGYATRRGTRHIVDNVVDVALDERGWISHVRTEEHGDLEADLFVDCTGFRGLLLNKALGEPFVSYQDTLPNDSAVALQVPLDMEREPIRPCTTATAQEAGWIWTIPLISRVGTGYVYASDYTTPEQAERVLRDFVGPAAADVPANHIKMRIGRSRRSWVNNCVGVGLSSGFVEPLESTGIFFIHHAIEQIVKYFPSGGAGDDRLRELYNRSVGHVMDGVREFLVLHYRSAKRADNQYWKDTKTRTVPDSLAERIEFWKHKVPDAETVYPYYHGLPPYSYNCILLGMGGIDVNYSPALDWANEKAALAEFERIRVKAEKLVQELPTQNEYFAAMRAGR
Text: (§3) To determine kinetic parameters for Tar14-catalyzed chlorination of L-tryptophan, phenol was first tested as an internal standard for quantification of the product (L-6-chlorotryptophan) formation. An HPLC method that gives separation of substrate/product/internal standard peaks (method 4) was developed (FIGS. 10A and 108). It was also verified that activity of Tar14 was not affected by the presence of phenol in the reaction mixture. Using commercial standard of L-6-chlorotryptophan and phenol mixed at known concentrations, a calibration curve was built (FIGS. 10A and 10B).
(§4) Tar14 reaction mixture of total volume 100 μL in 1.5 mL Eppendorf tube was composed of the following components:
(§5) Buffer (10 mM Tris, 10% glycerol, pH 7.6) up to 100 μL
as §1
(§6) The reactions were incubated at 30° C. for 5, 10, 25, 45, 60, 120, and 240 min, after which the assays were quenched by addition of equal volume of HPLC grade methanol and frozen at −70° C. till further analysis by HPLC. All assays were performed in triplicates for each substrate concentration and every time point. In parallel, for each time point and substrate concentration, assays with no added phenol and with no added enzyme were used as controls.
(§7) Product formation was quantitated by calculating the ratio of peak areas of product to internal standard and fitting that value to a calibration curve. […]

[10] = substrate: N[C@@H](Cc1c[nH]c2ccccc12)C(=O)O; test: as above; assay type: biochemical, Saccharomonospora sp. CNQ-490; conditions: other: Tar14, L-Trp chlorination, 30° C., pH 7.6
Text: as §3, §4, §5, §1, §6, §7

In the case of N[C@@H](Cc1c[nH]c2ccccc12)C(=O)O [Compound 4, L-tryptophan], the “Production of L-4-Cl-Kyn from L-Trp in one-pot reaction” value (Tar13 Tar14 Tar16) is reported as “below 1%”, the “Enzyme assays, % conversion, Tar14, Br^−” value (Tar14; KBr 100 mM, substrate 0.25 mM, Tar14 5 μM, 30° C., 4 h) is reported as 100% and the “Enzyme assays, % conversion, Tar14, Cl^−” value (Tar14; NaCl 100 mM, substrate 0.25 mM, Tar14 5 μM, 30° C., 4 h) is reported as 100%. The “Iodination by Tar14” value (Tar14; incubated with iodide) was “No iodinated tryptophan products were detected”, the “Feeding, % incorporation, A1 + A13 domain” value [1] was <5% and the “Conversion/activity as substrate for Tar13” value (Tar13) was “only trace activity”. The “Enzyme assays, % conversion, Tar13” value (Tar13; substrate 0.25 mM, Tar13 20 μM, overnight at 30° C.) was 15% and the “Enzyme assays, % conversion, Tar16” value (Tar16) was 100%.

For N[C@@H](CC(=O)c1ccc(Cl)cc1NC=O)C(=O)O [Compound 10, N-formyl-L-4-Cl-kynurenine], the “Stability: deformylation to L-4-Cl-Kyn (1)” value [2] was “partial deformylation”.

For N[C@@H](Cc1c[nH]c2ccccc12)C(=O)O [L-Trp, L-tryptophan], the Km [3] is given as 28.7 ± 1.3 µM, the kcat [3] is given as 0.01 ± 0.0017 s⁻¹ and the Km [4] is given as 20.7 ± 0.1 µM. For the same molecule, the kcat [4] was 0.0183 ± 0.0017 s⁻¹, the Km [5] was 34.1 ± 2.1 µM and the kcat [5] was 0.0067 ± 0.0017 s⁻¹. For the same molecule, the Km ([6]; 30° C.) was 12.2 ± 1.8 µM, the kcat ([6]; 30° C.) was 0.0717 ± 0.0083 s⁻¹ and the Km ([6]; 45° C.) was 20.4 ± 1.3 µM. The kcat ([6]; 45° C.) was 0.085 ± 0.0067 s⁻¹, the Km [7] was 25.3 ± 3.2 µM and the kcat [7] was 0.0283 ± 0.0017 s⁻¹. For the same molecule, the Km [8] was 15.2 ± 4.2 µM, the kcat [8] was 0.04 ± 0.0067 s⁻¹ and the kcat [9] was 0.0067 s⁻¹ and 0.007 ± 0.00083 s⁻¹.

B1: Saccharomonospora sp. CNQ-490 Tar14 (flavin-dependent tryptophan halogenase), wild type, SEQ ID NO: 3 (expressed SEQ ID NO: 4; expressed with cleaved His tag … (protein)
chain: T1 sequence (W5VG40 1-534)
notes: flavin reductase Tar15 and PtdH as helper enzymes
B1 showed a Km [10] of 12.0 ± 1.9 µM.
